The subject of series [1] is Calcium oxalate. Nature of the series: Inhibition of calcium oxalate crystallization in supersaturated solution of CaOx containing of 1 mM of CaCl2 and 250 uM of Na2C2O4 incubated for 72 hrs at pH 6.8 HEPES buffer by spectrophotometric method.
For series [2], the system named is Calcium oxalate. Nature of the series: Inhibition of calcium oxalate crystallization in supersaturated solution of CaOx containing of 250 uM of CaCl2 and 250 uM of Na2C2O4 incubated for 72 hrs at pH 6.8 HEPES buffer by fluorescence-based assay.
Series [3] concerns Calcium oxalate. Description: Inhibition of calcium oxalate crystallization in COM (100) face assessed as platy morphology at EC50 concentration by scanning electron microscopic analysis.
Series [4] has as its system Calcium oxalate. Nature of the series: Inhibition of calcium oxalate crystallization in COM (100) face assessed as crystals flattened at the apexes at EC50 concentration by scanning electron microscopic analysis.
Series [5] has as its system Mus musculus. Nature of the series: Anti-hyperoxaluria Agxt-knockout C57BL/6 mouse model of hyperoxaluria assessed as decrease in CaOx crystals in urine at 150 micromol/kg, po administered as triester prodrug for 6 weeks by light microscopic analysis. The class given is functional, organism-based. The settings on record: dose 150.0 µmol/kg.
Series [6] concerns Calcium oxalate. Description: Inhibition of calcium oxalate crystallization in COM (100) face assessed as twinned with monoclinic morphology at EC50 concentration by scanning electron microscopic analysis.
Series [7] is described as follows: Oral bioavailability in Agxt-knockout C57BL/6 mouse assessed as LH1513 level in plasma at 150 micromol/kg administered as triester prodrug and measured after 4 hrs. The settings on record: in vivo, at 150 µmol/kg. The class given is ADME, organism-based.
Series [8] concerns Calcium oxalate. Description: Inhibition of calcium oxalate crystallization in COM (010) face assessed as growth on the (121-) steps at EC50 concentration incubated for 20 min by atomic force microscopic analysis.
A short description of series [9]: Drug metabolism in Agxt-knockout C57BL/6 mouse assessed as LH1513 concentration in urine at 150 micromol/kg, po administered as triester prodrug and measured after 8 hrs. The following applies: in vivo, dose 150 µmol/kg, read-out: Ct. The class given is ADME, organism-based.
Series [10] in a line: Drug excretion in Agxt-knockout C57BL/6 mouse urine at 150 micromol/kg, po measured after 8 hrs. The settings on record: in vivo, dose 150 µmol/kg. The class given is ADME, organism-based.

Activity calls are given as the source filed them. The rule behind the calls is not given here.

What is called EC50 is the concentration that produces a half-maximal response. In the case of `O=C([O-])CC(O)(CC(=O)[O-])C(=O)[O-].[Na+].[Na+].[Na+]` [SODIUM CITRATE], the EC50 in series [1] is 665 µM; in series [2] it was 2500 µM. The inhibition entry in series [3] and in series [4] was “Active” each time.

As to `CC(=O)C(=O)O` [PYRUVATE SODIUM], the EC50 in series [1] is 386 µM; in [2], 98.3 µM.

Turning to `NCCNC(=O)C(=O)O`, in series [2], the EC50 was found to be 112 µM.

Regarding `O=C([O-])C(=O)NCCCC[C@H](NC(=O)C(=O)[O-])C(=O)[O-].[Na+].[Na+].[Na+]`, the EC50 in series [1] came to 63.8 µM; in [2] it was 21.7 µM. In addition, in series [5], the result was Active. For the same compound, the inhibition entry in series [6] and in series [8] was “Active” each time. Besides, in series [7], the F was 3%. The concentration in [9] was roughly 30 µM. Also, the Drug excretion result in series [10] is “Active”.

On to `O=C(O)C(=O)NCCNC(=O)C(=O)O`, for which, in series [2], the EC50 is 37.9 µM.

Values taken from ChEMBL document CHEMBL6127148, “Discovery of l-Lysine Dioxalate (LH1513) as a Novel Inhibitor of Calcium Oxalate Crystallization for Hyperoxaluria” (ACS Med Chem Lett, 2024).
